The values below come from ChEMBL document CHEMBL1201862, “PubChem BioAssay data set” (2004).

Among the test systems are DLD-1; DMS-273; KM-20L2; LXFL 529; SNB-78; XF498; DMS-114; HOP-18; RXF 631.
What all share (assay): NCI anticancer screen, dose series, 48 h

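Tested at 5 concentrations; 48 h exposure; 96-well plates; endpoints linearly interpolated, else capped at highest concentration. Abbreviation: GI50, concentration required for 50% inhibition of growth.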 Activity calls are given as the source filed them. Cut-off read from the data, not from the text of the source: active = GI50 up to about 1.1 µM and inactive = higher. Bounds are passed on as bounds.

For the compound `COc1cccc2ccc(C(=O)c3ccccc3)nc12`, the GI50 in the assay on DLD-1 was > 100 µM (inactive); in the assay with DMS-273, > 100 µM (inactive); in the assay with KM-20L2, > 100 µM (inactive); in the assay with LXFL 529, 77.8 µM (inactive); in the assay on SNB-78, > 100 µM (inactive); in the assay on XF498, > 100 µM (inactive).

For `C#C[C@@]1(O)CCCC2=CC(=O)C[C@]21C`, the GI50 in the assay on DLD-1, in the assay with DMS-114, in the assay with HOP-18, with LXFL 529 and with XF498 was > 100 µM (inactive) throughout.

As for `CC(=O)OC1COC(N2C(=O)C(=O)c3ccccc32)C(OC(C)=O)C1OC(C)=O` (stereo not given), the GI50 with DLD-1, with DMS-114, with DMS-273, with KM-20L2, in the assay on LXFL 529 and in the assay on RXF 631 was > 100 µM (inactive) in each case. In addition, the GI50 in the assay with SNB-78 was > 100 µM (inactive).

As for `CC(=O)C1=C(C)NC2C=CC=CN12` (stereo not given), the GI50 in the assay on DLD-1, with DMS-114, in the assay with DMS-273, in the assay with HOP-18, with KM-20L2 and with SNB-78 was > 100 µM (inactive) each time. Further, the GI50 in the assay on XF498 is > 100 µM (inactive).

For the compound `COC(=O)C[S+]([O-])c1ccccc1` (stereo not given), the GI50 in the assay with DLD-1 was 29.1 µM (inactive); in the assay with DMS-114, 20.8 µM (inactive); with DMS-273 it was 28.9 µM (inactive); with LXFL 529, 31.8 µM (inactive); in the assay on SNB-78 it was 33.5 µM (inactive); with XF498, 76.7 µM (inactive).

Regarding `CCc1cccc(C(C)C)c1C1C(=O)C(=O)N(c2nc3ccccc3s2)C(=O)C1=O`, the GI50 in the assay on DLD-1, with DMS-114, in the assay with DMS-273, in the assay on HOP-18, in the assay with KM-20L2 and with LXFL 529 was > 100 µM (inactive) in each case. Also, the GI50 in the assay with RXF 631 and in the assay on SNB-78 was > 100 µM (inactive) throughout.

Take `COc1ccc(CC#C/C=C/C(=O)NCC(C)C)cc1`: the GI50 in the assay with DLD-1, with DMS-114, with DMS-273, in the assay with HOP-18, in the assay with KM-20L2 and in the assay with LXFL 529 was > 100 µM (inactive) in each case. Besides, the GI50 in the assay with SNB-78 and in the assay on XF498 was > 100 µM (inactive) each time.

Take `COC(=O)N/N=C/c1oc(-c2ccccc2)c(-c2ccccc2)c1[N+](=O)[O-]`: the GI50 with DLD-1, in the assay on DMS-114, in the assay on DMS-273, in the assay on KM-20L2, with LXFL 529 and with RXF 631 was > 100 µM (inactive) each time. Besides, the GI50 in the assay with SNB-78 and in the assay with XF498 was > 100 µM (inactive) in each case.

As for `O=C1C[C@H](c2ccc(O)c(O)c2)Oc2cc(O)cc(O)c21`, the GI50 is > 100 µM (inactive) in the assay with DLD-1; 21.2 µM (inactive) in the assay on DMS-114; > 100 µM (inactive) with DMS-273; > 100 µM (inactive) with HOP-18; > 100 µM (inactive) with KM-20L2; > 100 µM (inactive) in the assay with LXFL 529. The GI50 in the assay with RXF 631 was 64.4 µM (inactive); in the assay on SNB-78, > 100 µM (inactive).

Take `O=C1C=C(O)c2nc(O)ccc2C1=O`: the GI50 in the assay with DLD-1, in the assay with DMS-273, in the assay with KM-20L2, in the assay on SNB-78 and with XF498 was > 100 µM (inactive) each time.

`C=C1C(=O)C=C2C=C3C(=O)C(C)(C)C[C@]3(O)C12C` (stereo not given in full): the GI50 with DLD-1 is 1.65 µM (inactive); in the assay with DMS-114, 1.1 µM (active); in the assay with DMS-273 it was 5.92 µM (inactive); in the assay with LXFL 529, 1.26 µM (inactive); in the assay with RXF 631, 16.4 µM (inactive); with SNB-78, 7.74 µM (inactive). Also, the GI50 with XF498 is 1.85 µM (inactive).

Consider `CN(C)c1nc(N(C)C)sc(=O)n1`, for which the GI50 in the assay on DLD-1, in the assay with DMS-114, with DMS-273, in the assay with HOP-18, in the assay with KM-20L2 and in the assay with LXFL 529 was > 100 µM (inactive) in each case. The GI50 with XF498 is > 100 µM (inactive).

Consider `C[N+](C)(C)CC1CCCCC1O` (stereo not given), for which the GI50 in the assay with DLD-1 was > 100 µM (inactive); with DMS-273, > 100 µM (inactive); in the assay on HOP-18, 1.28 µM (inactive); with KM-20L2, > 100 µM (inactive); with LXFL 529 it was > 100 µM (inactive); with RXF 631 it was > 100 µM (inactive). Further, the GI50 with SNB-78 was > 100 µM (inactive).

Turning to `O=C1c2ccccc2C(=O)N1C/C=N/NS(=O)(=O)c1ccc2ccccc2c1`, the GI50 in the assay with DLD-1, in the assay on DMS-273, with HOP-18, with KM-20L2, with LXFL 529 and in the assay with RXF 631 was > 100 µM (inactive) in each case. For the same compound, the GI50 with SNB-78 and with XF498 was > 100 µM (inactive) throughout.

`COc1ccc(/C=C2/CSC/C(=C/c3ccc(OC)c(OC)c3)C2=O)cc1OC`: the GI50 was 0.46 µM (active) in the assay on DLD-1; 1.03 µM (active) in the assay on DMS-273; 6.65 µM (inactive) with HOP-18; 2.3 µM (inactive) in the assay with KM-20L2; 1.93 µM (inactive) in the assay on LXFL 529; 1.99 µM (inactive) in the assay on RXF 631. Also, the GI50 in the assay with SNB-78 was 2.12 µM (inactive); with XF498 it was 11.7 µM (inactive).

As for `CCS/C(=N\c1ccccc1)SC`, the GI50 in the assay with DLD-1, in the assay with DMS-114, with DMS-273, with HOP-18, in the assay with KM-20L2 and in the assay on LXFL 529 was > 100 µM (inactive) in each case. The GI50 in the assay with RXF 631, with SNB-78 and in the assay on XF498 was > 100 µM (inactive) each time.

In the case of `COc1cc2c(cc1OC)C(C(CBr)CBr)N(C1CCCC1)CC2` (stereo not given), the GI50 is > 100 µM (inactive) with DLD-1; > 100 µM (inactive) in the assay with DMS-273; 1.46 µM (inactive) in the assay on KM-20L2; > 100 µM (inactive) in the assay on LXFL 529; > 10 µM (inactive) with SNB-78; > 100 µM (inactive) in the assay on XF498.

With `O=C(NN1C(=O)C(Cl)C1c1ccc(O)cc1)c1ccccc1O` (stereo not given), the GI50 in the assay on DLD-1 was 15.8 µM (inactive); in the assay with DMS-114, 14 µM (inactive); in the assay with DMS-273 it was 12.9 µM (inactive); in the assay with HOP-18, 15.9 µM (inactive); with LXFL 529, 17.9 µM (inactive); in the assay with SNB-78, 21.7 µM (inactive). The GI50 in the assay with XF498 is 11.1 µM (inactive).

`Cc1cc(C)[n+]2c(c1)C=CC2.[O-][Cl+3]([O-])([O-])[O-]`: the GI50 with DLD-1 was 10.7 µM (inactive); with DMS-114 it was 5.5 µM (inactive); in the assay on DMS-273 it was 0.459 µM (active); in the assay on KM-20L2, 21.3 µM (inactive); with LXFL 529 it was 16.5 µM (inactive); with SNB-78, 21.2 µM (inactive).

With `O/N=C1/C(=C/c2ccc(Oc3ccccc3)cc2)CCCC1C(NO)c1ccc(Oc2ccccc2)cc1` (stereo not given), the GI50 is 66.1 µM (inactive) in the assay on DLD-1; 26.4 µM (inactive) with DMS-114; 28.6 µM (inactive) with DMS-273; > 100 µM (inactive) in the assay with HOP-18; 11.2 µM (inactive) in the assay on KM-20L2; 33 µM (inactive) in the assay with LXFL 529. The GI50 was 33.2 µM (inactive) in the assay with RXF 631, 34.8 µM (inactive) in the assay on SNB-78 and 29.7 µM (inactive) with XF498.

Regarding `N#CC(/C(CCCC(=O)Nc1cccc([N+](=O)[O-])c1)=N/NC(=O)c1cc2ccccc2cc1O)c1ccccc1` (stereo not given), the GI50 with DLD-1 is 36.7 µM (inactive); with DMS-114, 20.2 µM (inactive); in the assay on HOP-18, 18.3 µM (inactive); in the assay on KM-20L2, 38 µM (inactive); with LXFL 529, 27.2 µM (inactive); with RXF 631, 29.8 µM (inactive). In the assay with XF498, the GI50 was 25 µM (inactive).

With `O=Nc1ccc(O)c2ncccc12`, the GI50 with DLD-1 was 9.57 µM (inactive); with DMS-114 it was 3.9 µM (inactive); in the assay with DMS-273, 2.55 µM (inactive); in the assay with HOP-18 it was 11.3 µM (inactive); in the assay on KM-20L2, 23.9 µM (inactive); in the assay with LXFL 529, 2.38 µM (inactive). For the same compound, the GI50 with SNB-78 is 2.43 µM (inactive).

With `CCCC(C)NC1=C(NC(C)=O)C(=O)c2ccccc2C1=O` (stereo not given), the GI50 with DLD-1, in the assay on DMS-273, in the assay with KM-20L2, with LXFL 529, in the assay on SNB-78 and with XF498 was > 100 µM (inactive) in each case.

For `CC1=C(CO)C(=O)O[C@@H]([C@@H](C)[C@H]2CC[C@H]3[C@@H]4C[C@H]5O[C@]56[C@@H](O)C=CC(=O)[C@]6(C)[C@H]4CC[C@]23C)C1` [WITHAFERIN A], the GI50 with DLD-1 was 0.303 µM (active); in the assay on DMS-114, 0.478 µM (active); in the assay on DMS-273, 0.405 µM (active); with KM-20L2 it was 0.392 µM (active); in the assay with LXFL 529, 0.333 µM (active); in the assay on XF498, 1.43 µM (inactive).

Regarding `COc1cc(/C=C(\NC(=O)c2ccccc2)c2nc3c(O)nc(S)nc3[nH]2)cc(OC)c1OC`, the GI50 in the assay on DLD-1, in the assay with DMS-114, with KM-20L2, in the assay with LXFL 529, in the assay on RXF 631 and with SNB-78 was > 100 µM (inactive) each time. The GI50 with XF498 is > 100 µM (inactive).
